pIC50: −log10 of the molar value.
Each molecule was assayed against T1, human mPGES-1 (Homo sapiens, UniProt O14684) (assay: Test for mPGES-1 inhibitory activity (microsomal enzyme, PGE2 EIA)). Settings: microsomes from COS-1 cells transfected with human mPGES-1 cDNA; substrate PGH2 1 μM; 4° C., 4 minutes; PGE2 measured by EIA; read-out: h mPGES1 IC50.
T1 construct: made in house; host or cells: COS-1 cells (transient transfection; microsomal fraction used as enzyme)
T1 sequence (O14684 1-152): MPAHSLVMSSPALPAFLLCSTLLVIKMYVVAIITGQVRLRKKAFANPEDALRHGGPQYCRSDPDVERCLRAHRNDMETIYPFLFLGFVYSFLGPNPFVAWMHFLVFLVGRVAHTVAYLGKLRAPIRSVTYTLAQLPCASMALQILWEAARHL
Type: biochemical
Procedure: Test Example 1: Test for mPGES-1 Inhibitory Activity
Microsomes were prepared from COS-1 cells transiently transfected with a plasmid containing human mPGES-1 cDNA, and used as mPGES-1 enzyme. The mPGES-1 enzyme was diluted with a sodium phosphate buffer (pH 7.2) containing reduced glutathione (2.5 mM) and EDTA (1 mM), DMSO or a DMSO solution of a test compound (final concentration of DMSO was 2%) was added to the enzyme, and the mixture was preincubated at 4° C. for 15 minutes. Then, PGH2 (Prostaglandin H2) as the substrate was added at a final concentration of 1 μM to start the enzymatic reaction, and after incubation at 4° C. for 4 minutes, a solution of ferric chloride (25 mM) and citric acid (50 mM) was added to terminate the enzymatic reaction. Generated PGE2 (Prostaglandin E2) was measured by using Prostaglandin E2 Express EIA Kit (Cayman Chemical). IC50 values were determined by using a standard method.
`Cc1nc(-c2c(C(F)(F)F)ccc(CNC(=O)C3CCN(c4ncc(Cl)cc4F)CC3)c2F)[nH]c(=O)c1F` [Example 52, 1-(5-chloro-3-fluoropyridin-2-yl)-N-[2-fluoro-3-(5-fluoro-4-methyl-6-oxo-1,6-dihydropyrimidin-2-yl)-4-(trifluoromethyl)benzyl]piperidine-4-carboxamide] showed a pIC50 of 7.82.
With `Cc1nc(-c2c(C(F)(F)F)ccc(CNC(=O)[C@H]3CC[C@H](OCc4cc(F)cc(Cl)c4)CC3)c2F)[nH]c(=O)c1F` [Example 131, trans-4-[(3-chloro-5-fluorobenzyl)oxy]-N-[2-fluoro-3-(5-fluoro-4-methyl-6-oxo-1,6-dihydropyrimidin-2-yl)-4-(trifluoromethyl)benzyl]cyclohexane-1-carboxamide] the pIC50 was over 9.00.
In the case of `O=c1cc(C(F)(F)F)nc(-c2c(C(F)(F)F)ccc(CNC(=O)[C@H]3CC[C@H](OCc4ccc(F)c(F)c4)CC3)c2F)[nH]1` [Example 115, trans-4-[(3,4-difluorobenzyl)oxy]-N-{2-fluoro-3-[6-oxo-4-(trifluoromethyl)-1,6-dihydropyrimidin-2-yl]-4-(trifluoromethyl)benzyl}cyclohexane-1-carboxamide], the pIC50 was 7.68.
Molecule `COc1cc(N2CCC(C(=O)NCc3ccc(C(F)(F)F)c(-c4nc(C)cc(=O)[nH]4)c3F)CC2)ccc1Cl` [Example 93, 1-(4-chloro-3-methoxyphenyl)-N-[2-fluoro-3-(4-methyl-6-oxo-1,6-dihydropyrimidin-2-yl)-4-(trifluoromethyl)benzyl]piperidine-4-carboxamide] has a pIC50 of 8.85.
`N#Cc1ccc(N2CCC(C(=O)NCc3ccc(C(F)(F)F)c(-c4nc(C(F)(F)F)cc(=O)[nH]4)c3F)CC2)c(Cl)c1` [Example 75, 1-(2-chloro-4-cyanophenyl)-N-{2-fluoro-3-[6-oxo-4-(trifluoromethyl)-1,6-dihydropyrimidin-2-yl]-4-(trifluoromethyl)benzyl}piperidine-4-carboxamide] was tested, and the pIC50 was over 9.00.
Molecule `Cc1cccc2ccc(N3CCC(C(=O)NCc4ccc(Cl)c(-c5nc(C(F)(F)F)cc(=O)[nH]5)c4F)CC3)nc12` [Example 31, N-{4-chloro-2-fluoro-3-[6-oxo-4-(trifluoromethyl)-1,6-dihydropyrimidin-2-yl]benzyl}-1-(8-methylquinolin-2-yl)piperidine-4-carboxamide] has a pIC50 of over 9.00.
For `O=c1cc(C(F)(F)F)nc(-c2c(C(F)(F)F)ccc(CNC(=O)[C@H]3C[C@@H](OCc4cccc(Cl)c4)C3)c2F)[nH]1` (stereo in doubt) [Example 139, cis-3-[(3-chlorobenzyl)oxy]-N-{2-fluoro-3-[6-oxo-4-(trifluoromethyl)-1,6-dihydropyrimidin-2-yl]-4-(trifluoromethyl)benzyl}cyclobutane-1-carboxamide], the pIC50 was over 9.00.
With `Cc1cc(=O)[nH]c(-c2c(C(F)(F)F)ccc(CNC(=O)C3CCN(c4ccc(Cl)c(Cl)c4)CC3)c2F)n1` [Example 86, 1-(3,4-dichlorophenyl)-N-[2-fluoro-3-(4-methyl-6-oxo-1,6-dihydropyrimidin-2-yl)-4-(trifluoromethyl)benzyl]piperidine-4-carboxamide] the pIC50 was over 9.00.
With `O=C(NCc1ccc(C(F)(F)F)c(-c2nc(C(F)(F)F)cc(=O)[nH]2)c1F)C1CCN(c2cccc(Cl)c2Cl)CC1` [Example 69, 1-(2,3-dichlorophenyl)-N-{2-fluoro-3-[6-oxo-4-(trifluoromethyl)-1,6-dihydropyrimidin-2-yl]-4-(trifluoromethyl)benzyl}piperidine-4-carboxamide] the pIC50 was 8.08.
Molecule `O=c1cc(C(F)(F)F)nc(-c2c(C(F)(F)F)ccc(CNC(=O)[C@H]3CC[C@H](OCc4cccc(C(F)(F)F)c4)CC3)c2F)[nH]1` [Example 112, trans-N-{2-fluoro-3-[6-oxo-4-(trifluoromethyl)-1,6-dihydropyrimidin-2-yl]-4-(trifluoromethyl)benzyl}-4-{[3-(trifluoromethyl)benzyl]oxy}cyclohexane-1-carboxamide] has a pIC50 of 7.54.
Molecule `Cc1nc(-c2c(C(F)(F)F)ccc(CNC(=O)C3CCN(c4ccc(OC(F)(F)F)cc4)CC3)c2F)[nH]c(=O)c1F` [Example 72, N-[2-fluoro-3-(5-fluoro-4-methyl-6-oxo-1,6-dihydropyrimidin-2-yl)-4-(trifluoromethyl)benzyl]-1-[4-(trifluoromethoxy)phenyl]piperidine-4-carboxamide] has a pIC50 of over 9.00.
With `O=C(NCc1ccc(Cl)c(-c2nc(C(F)(F)F)cc(=O)[nH]2)c1F)C1CCN(c2ccc(C(F)(F)F)cn2)CC1` [Example 32, N-{4-chloro-2-fluoro-3-[6-oxo-4-(trifluoromethyl)-1,6-dihydropyrimidin-2-yl]benzyl}-1-[5-(trifluoromethyl)pyridin-2-yl]piperidine-4-carboxamide] the pIC50 was over 9.00.

Same assay, conditions: microsomes of COS-1 cells transfected with human mPGES-1 cDNA; PGH2 1 μM; 4° C., 4 minutes; PGE2 by EIA; read-out: h mPGES1 IC50
`O=c1cc(C(F)(F)F)nc(-c2c(C(F)(F)F)ccc(CNC(=O)[C@H]3C[C@@H](Oc4cccc(Cl)c4)C3)c2F)[nH]1` [Example 254, cis-3-(3-chlorophenoxy)-N-{2-fluoro-3-[6-oxo-4-(trifluoromethyl)-1,6-dihydropyrimidin-2-yl]-4-(trifluoromethyl)benzyl}cyclobutane-1-carboxamide] was tested, and the pIC50 was 8.34.
With `O=c1cc(C(F)F)nc(-c2c(C(F)(F)F)ccc(CNC(=O)[C@H]3C[C@H](OCc4cccc(Cl)c4)C3)c2F)[nH]1` [Example 162, trans-3-[(3-chlorobenzyl)oxy]-N-{3-[4-(difluoromethyl)-6-oxo-1,6-dihydropyrimidin-2-yl]-2-fluoro-4-(trifluoromethyl)benzyl}cyclobutane-1-carboxamide] the pIC50 was over 9.00.
Work on `O=c1cc(C(F)(F)F)nc(-c2c(C(F)(F)F)ccc(CNC(=O)[C@H]3C[C@@H](Oc4ccc(C(F)(F)F)cn4)C3)c2F)[nH]1` [Example 250, cis-N-{2-fluoro-3-[6-oxo-4-(trifluoromethyl)-1,6-dihydropyrimidin-2-yl]-4-(trifluoromethyl)benzyl}-3-{[5-(trifluoromethyl)pyridin-2-yl]oxy}cyclobutane-1-carboxamide] yielded a pIC50 of over 9.00.
With `O=c1cc(C(F)(F)F)nc(-c2c(C(F)(F)F)ccc(CNC(=O)[C@H]3C[C@H](OCc4ccc(C(F)(F)F)cc4)C3)c2F)[nH]1` [Example 146, trans-N-{2-fluoro-3-[6-oxo-4-(trifluoromethyl)-1,6-dihydropyrimidin-2-yl]-4-(trifluoromethyl)benzyl}-3-{[4-(trifluoromethyl)benzyl]oxy}cyclobutane-1-carboxamide] the pIC50 was 8.68.
`O=C(NCc1ccc(C(F)(F)F)c(-c2nc(C(F)(F)F)cc(=O)[nH]2)c1F)c1cccc(Cl)c1Cl` [Example 274, 2,3-dichloro-N-{2-fluoro-3-[6-oxo-4-(trifluoromethyl)-1,6-dihydropyrimidin-2-yl]-4-(trifluoromethyl)benzyl}benzamide] showed a pIC50 of over 9.00.
`O=c1cc(C(F)(F)F)nc(-c2c(C(F)(F)F)ccc(CNS(=O)(=O)c3ccccc3C(F)(F)F)c2F)[nH]1` [Example 272, N-{2-fluoro-3-[6-oxo-4-(trifluoromethyl)-1,6-dihydropyrimidin-2-yl]-4-(trifluoromethyl)benzyl}-2-(trifluoromethyl)benzenesulfonamide] showed a pIC50 of 7.48.
`O=C(NCc1ccc(C(F)(F)F)c(-c2nc(C(F)(F)F)cc(=O)[nH]2)c1F)C1CN(C(=O)Cc2ccc(F)cc2)C1` [Example 276, N-{2-fluoro-3-[6-oxo-4-(trifluoromethyl)-1,6-dihydropyrimidin-2-yl]-4-(trifluoromethyl)benzyl}-1-[2-(4-fluorophenyl)acetyl]azetidine-3-carboxamide] showed a pIC50 of 7.62.
In the case of `O=C(NCc1ccc(C(F)(F)F)c(-c2nc(C(F)(F)F)cc(=O)[nH]2)c1F)c1ccccc1C(F)(F)F` [Example 273, N-{2-fluoro-3-[6-oxo-4-(trifluoromethyl)-1,6-dihydropyrimidin-2-yl]-4-(trifluoromethyl)benzyl}-2-(trifluoromethyl)benzamide], the pIC50 was 8.08.
`Cc1cc(=O)[nH]c(-c2c(C(F)(F)F)ccc(CNC(=O)[C@H]3C[C@H](OCc4cccc(F)c4)C3)c2F)n1` [Example 188, trans-N-[2-fluoro-3-(4-methyl-6-oxo-1,6-dihydropyrimidin-2-yl)-4-(trifluoromethyl)benzyl]-3-[(3-fluorobenzyl)oxy]cyclobutane-1-carboxamide] showed a pIC50 of 8.00.
`CCc1cc(=O)[nH]c(-c2c(C(F)(F)F)ccc(CNC(=O)[C@H]3C[C@H](OCc4cccc(F)c4F)C3)c2F)n1` [Example 206, trans-3-[(2,3-difluorobenzyl)oxy]-N-[3-(4-ethyl-6-oxo-1,6-dihydropyrimidin-2-yl)-2-fluoro-4-(trifluoromethyl)benzyl]cyclobutane-1-carboxamide] showed a pIC50 of 7.82.
Work on `CCc1cc(=O)[nH]c(-c2c(C(F)(F)F)ccc(CNC(=O)[C@H]3C[C@H](OCc4ccc(F)cc4Cl)C3)c2F)n1` [Example 207, trans-3-[(2-chloro-4-fluorobenzyl)oxy]-N-[3-(4-ethyl-6-oxo-1,6-dihydropyrimidin-2-yl)-2-fluoro-4-(trifluoromethyl)benzyl]cyclobutane-1-carboxamide] yielded a pIC50 of 8.05.
